Kd data for one compound are collected here from paper PMC6044684 (ACS Omega, 2016).

The target of the test is epidermal growth factor receptor (EGFR) (Homo sapiens, UniProt P00533). The experiment in a line: SPR. The class given is binding.
Chain of epidermal growth factor receptor (EGFR) (P00533 25-1210): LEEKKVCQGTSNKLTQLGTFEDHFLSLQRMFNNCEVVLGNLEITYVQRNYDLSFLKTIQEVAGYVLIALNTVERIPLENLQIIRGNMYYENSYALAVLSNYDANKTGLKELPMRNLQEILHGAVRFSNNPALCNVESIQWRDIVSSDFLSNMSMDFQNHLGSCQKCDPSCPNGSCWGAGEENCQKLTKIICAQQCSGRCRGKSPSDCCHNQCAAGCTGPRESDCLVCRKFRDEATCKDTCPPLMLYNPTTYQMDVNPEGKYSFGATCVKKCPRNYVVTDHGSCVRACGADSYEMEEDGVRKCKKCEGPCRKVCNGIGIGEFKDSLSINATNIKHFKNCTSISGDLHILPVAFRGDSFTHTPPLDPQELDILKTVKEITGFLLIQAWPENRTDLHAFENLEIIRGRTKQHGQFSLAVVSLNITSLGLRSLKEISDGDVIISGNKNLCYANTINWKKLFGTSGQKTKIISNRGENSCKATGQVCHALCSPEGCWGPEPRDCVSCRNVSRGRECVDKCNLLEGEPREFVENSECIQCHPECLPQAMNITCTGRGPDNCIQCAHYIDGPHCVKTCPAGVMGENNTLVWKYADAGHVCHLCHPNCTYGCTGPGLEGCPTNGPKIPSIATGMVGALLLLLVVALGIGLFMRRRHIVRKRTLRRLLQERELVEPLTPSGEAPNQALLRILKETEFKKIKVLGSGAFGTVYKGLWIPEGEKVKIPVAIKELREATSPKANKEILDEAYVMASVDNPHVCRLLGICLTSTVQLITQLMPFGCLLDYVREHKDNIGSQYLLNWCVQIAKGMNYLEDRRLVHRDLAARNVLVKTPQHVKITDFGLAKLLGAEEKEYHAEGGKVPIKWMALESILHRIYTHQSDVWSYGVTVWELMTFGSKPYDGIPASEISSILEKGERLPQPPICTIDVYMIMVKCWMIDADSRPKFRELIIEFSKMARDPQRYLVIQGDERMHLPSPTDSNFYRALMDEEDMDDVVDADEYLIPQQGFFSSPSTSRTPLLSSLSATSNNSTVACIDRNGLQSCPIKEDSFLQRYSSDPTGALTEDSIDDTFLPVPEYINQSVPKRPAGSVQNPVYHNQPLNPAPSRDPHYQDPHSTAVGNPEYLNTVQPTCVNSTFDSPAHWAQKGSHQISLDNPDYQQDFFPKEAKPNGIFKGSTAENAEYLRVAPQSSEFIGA

`Clc1ccc(C2=NN(c3nc(C45CC6CC(CC(C6)C4)C5)cs3)C(c3ccccc3)C2)c(Cl)c1` (stereo not shown) [3e, 4-(adamantan-1-yl)-2-(3-(2,4-dichlorophenyl)-5-phenyl-4,5-dihydro-1H-pyrazol-1-yl)thiazole]: binding was put at a Kd of 11.8 ± 2.4 µM.
